Experimental data published in patent publication US10130677B2, “Antimicrobial peptide and uses thereof” (priority 2013, dated 2018).
Like-named read-outs stand apart in the source and are kept apart here.

Legend:
S. aureus JAR060131 = type: cell-based, Staphylococcus aureus; conditions: for IC99.9: approx. 1 × 10^6 CFU/ml S. aureus JAR, within 2 hrs (Table 2)
Description: Polypeptides of the invention preferably have an in vitro IC99.9 of at most 150 μM after 2 hours at 37° C. against at least one microbial species in the presence of 50% plasma. Said IC99.9 is preferably determined in accordance with a method for determining the antimicrobial activity as described herein in the Examples. Said method described in the Examples for determining antimicrobial activity of microbes not associated with biofilm involves the mixing of 50 microL of a solution of a polypeptide in PBS with addition of human plasma at a final concentration of 50% and 20 microL of bacterial suspension with 5×10^6 CFU per mL of PBS in a well. After incubation of this mixture for 2 hours at 37° C. under shaking conditions, a sample is used for assessment of the bacterial counts. The lowest peptide concentration at which there is 99.9% of bacteria killed, is called the inhibitory concentration (IC) 99.9. Bacterial counts can be determined by manual CFU counting. For determining antibacterial activity for instance 1×10^6 CFU/ml bacteria are used, for determining antifungal activity for instance 1×10^5 cells/ml are used.
(§1) Peptides were incubated with 1×10^6 CFU/ml of a mid-logarithmic culture of S. aureus JAR060131, methicillin resistant S. aureus (MRSA) LUH14616, Staphylococcus epidermidis RP62a, and Pseudomonas aeruginosa PAO1 in PBS without or with addition of pooled human plasma (Sanquin, Amsterdam, the Netherlands) at a final concentration of 50%. Antimicrobial activity is expressed as the 99.9% lethal concentration (LC99.9), i.e., the lowest peptide concentration which killed ≥99.9% of bacteria after 2 hours of incubation at 37° C. under shaking conditions.

[1] = system: UV-killed S. aureus JAR060131-induced IL-8 production; test: S. aureus neutralization in whole human blood; type: cell-based; conditions: for IC50: UV-killed S. aureus JAR060131-induced IL-8, blood from one donor
Description: (§2) Peptides were pre-incubated with 500 ng/ml LPS (E. coli 054) or 2 mg/ml LTA (S. aureus, endotoxin-free) or 1×10^9 CFU/ml of UV-killed S. aureus JAR060131 for 30 min at 37° C. Diluted whole human blood was stimulated with the peptide-LPS/LTA/S. aureus mixtures for 20 hours at 37° C. IL-12p40 and IL-8 levels in supernatants were determined using ELISA.

[2] = system: S. aureus JAR060131 biofilm formation; type: cell-based, Staphylococcus aureus
Description: After solubilization with ethanol, the optical density at 590 nm is determined as a measure of biofilm mass.
Peptides were incubated with 1×10^8 CFU/ml of S. aureus JAR060131 in biofilm-adjusted BM2 in 96-wells polypropylene plates as described in Antimicrob Agents Chemother 2012; 56: 2696-2704. After 24 hours incubation at 37° C., planktonic bacteria were removed by four washes with PBS and biofilms were stained with crystal violet. After solubilization with ethanol, the optical density at 590 nm was determined as a measure of biofilm mass.
To assess the antibiofilm activity of the peptides in the presence of plasma, 96-wells polypropylene plates were coated with plasma by overnight incubation with 20% plasma at 4° C. Wells were washed once with sterile water and inoculated with S. aureus and peptides as described above.

[3] = system: Staphylococcus epidermidis RP62a; type: cell-based; conditions: 50% plasma
Description: as §1

A. niger PagsA-lux = test: Effect on fungal growth; type: cell-based, Aspergillus niger; conditions: for concentration inhibiting A. niger growth: 25% plasma, light micrographs only, 16 hours (FIG. 2)
Description: The effect of the peptides on fungal growth was assessed using Aspergillus niger. Peptides were incubated with 7.5×10^4 spores/ml of A. niger PagsA-lux in PBS without or with addition of pooled human plasma at a final concentration of 25%. As positive control, spores were treated with the antifungal caspofungin (Cancidas). Absorbance was measured over time and at 16 hours, fungal growth was visualized using light microscopy.

[4] = system: LPS (E. coli 054)-induced IL-12p40 production; test: LPS neutralization in whole human blood; type: cell-based; conditions: for IC90: LPS-induced IL-12p40, blood from two donors
Source text: (§3) The term “anti-inflammatory activity” of a polypeptide as used herein refers to inhibiting, reducing or preventing an inflammatory response in a subject that has been infected by microbes, e.g. bacteria, viruses, fungi, and/or parasites. Anti-inflammatory activity of polypeptides of the invention is achieved by inhibiting, reducing or preventing the release of pro-inflammatory microbial compounds, such as lipoteichoic acid (LTA), peptidoglycan (PG) and/or lipopolysaccharides (LPS). Anti-inflammatory activity can be measured by methods known in the art. Examples of such method are a LPS neutralization assay and a LTA neutralization assay as described in the Examples of this application. In such method, a polypeptide of the invention is mixed with a fixed concentration of LPS or LTA, such as 500 ng/ml LPS or 2 mg/ml LTA, and incubated for 30 min. Thereafter, these mixtures were added to diluted fresh human whole blood and 20 hours thereafter the level of cytokines (e.g. 1L-8 for LTA and 1L-12p40 for LPS) in the blood sample are measured by ELISA.
as §2

[5] = system: LTA (S. aureus)-induced IL-8 production; test: LTA neutralization in whole human blood; type: cell-based; conditions: for IC50: LTA-induced IL-8, blood from one donor
Source text: as §3, §2

[6] = JAR060131 biofilm formation, 24 h

Row | Substance | IC99.9 (S. aureus JAR060131; 50% plasma) | IC99.9 (S. aureus JAR060131; PBS) | other results
1 | Ac-LKRLYKALAKLIKRLYRYLKKPVR-NH2 [Peptide P252, J LKRLYKALAKLIKRLYRYLKKPVR B] | – | – | LC99.9 (S. aureus JAR060131; 50% plasma, experiment 2013.01.15 (Table 6)): 51.2 µM; LC99.9 (S. aureus JAR060131; 50% plasma, experiment 2013.01.18 (Table 6)): 12.8 µM; LC99.9 (S. aureus JAR060131; PBS, experiment 2013.01.15 (Table 6)): 1.6 µM; LC99.9 (S. aureus JAR060131; PBS, experiment 2013.01.18 (Table 6)): 0.8 µM
2 | Ac-LKRLYKRLAKLIKRLYRYLKKPVR-NH2 [Peptide P145, J LKRLYKRLAKLIKRLYRYLKKPVR B] | 25.6 µM | 1.6 µM | fold higher concentration than OP-145 needed to inhibit S. aureus-induced IL-8 production for >50% [1]: 8 fold; IC50 [1]: 1.56 µM; IC50 [2, 6]: 6400 nM; concentration needed to inhibit biofilm formation for 50%, relative to OP-145 and P159 ([2]; plasma-coated wells (FIG. 3B)): two-fold higher concentration; higher bactericidal activity as compared to OP-145 [3]: 43 fold; concentration inhibiting A. niger growth (A. niger PagsA-lux): 102.4 µM; IC90 [4]: 0.75 nM; fold increased LTA-neutralizing ability versus OP-145 [5]: 4 fold; IC50 [5]: 0.195 µM
3 | Ac-LKRLYKRVFRLLKRYYRQLRRPVR-NH2 [Peptide P159, J LKRLYKRVFRLLKRYYRQLRRPVR B] | 12.8 µM | 1.6 µM | IC50 [1]: 0.195 µM; IC50 [2, 6]: 12800 nM; IC50 ([2]; plasma-coated wells (FIG. 3B), read-out: concentration inhibiting biofilm formation for 50%): 3200 nM; higher bactericidal activity as compared to OP-145 [3]: 43 fold; concentration inhibiting A. niger growth (A. niger PagsA-lux): 102.4 µM; fold lower antifungal activity as compared to OP-145 (A. niger PagsA-lux; PBS): 2 fold; IC90 [4]: 0.25 nM; IC50 ([4]; diluted whole human blood, 20 hours): 0.05 nM; fold increased LTA-neutralizing ability versus OP-145 [5]: 4 fold; IC50 [5]: 0.195 µM
4 | J LKKLWKRLARLLKRFIRQLRRPVR B (Ac-LKKLWKRLARLLKRFIRQLRRPVR-NH2) [Peptide P147] | 51.2 µM | 1.6 µM | –
5 | J LKKLWKRLARLWKRIIRQLKKPVR B (Ac-LKKLWKRLARLWKRIIRQLKKPVR-NH2) [Peptide P160] | 25.6 µM | 1.6 µM | –
6 | J LKKLWKRVFRIWKRIFRYLKRPVR B (Ac-LKKLWKRVFRIWKRIFRYLKRPVR-NH2) [Peptide P139] | 51.2 µM | 0.8 µM | –
7 | J LKKLYKRLFKILKRILRYLRKPVR B (Ac-LKKLYKRLFKILKRILRYLRKPVR-NH2) [Peptide P146] | 51.2 µM | 1.6 µM | –
8 | J LKKLYKRLFKLWKRLYRYLKKPVR B (Ac-LKKLYKRLFKLWKRLYRYLKKPVR-NH2) [Peptide P151] | 25.6 µM | 1.6 µM | –
9 | J LKKLYKRVAKIWKRWIRYLKKPVR B (Ac-LKKLYKRVAKIWKRWIRYLKKPVR-NH2) [Peptide P144] | 25.6 µM | 1.6 µM | fold increase of activity in the presence of plasma as compared to OP-145 (S. aureus JAR060131; 50% plasma): 8 fold
10 | J LKKVWKRVARLIKRWFRYLRRPVR B [Peptide P150] | 25.6 µM | 1.6 µM | –
11 | J LKKVWKRVFRILKRFLRYLKRPVR B (Ac-LKKVWKRVFRILKRFLRYLKRPVR-NH2) [Peptide P157] | 51.2 µM | 0.8 µM | –
12 | J LKKVYKRLARLLKRYIRYLRRPVR B (Ac-LKKVYKRLARLLKRYIRYLRRPVR-NH2) [Peptide P149] | 102.4 µM | 1.6 µM | fold increase of activity in the presence of plasma as compared to OP-145 (S. aureus JAR060131; 50% plasma): 2 fold
13 | J LKKVYKRVARLIKRLFRYLKRPVR B [Peptide P155] | 102.4 µM | 1.6 µM | fold increase of activity in the presence of plasma as compared to OP-145 (S. aureus JAR060131; 50% plasma): 2 fold
14 | J LKRLWKRLFKILKRYYRYLRRPVR B (Ac-LKRLWKRLFKILKRYYRYLRRPVR-NH2) [Peptide P162] | 25.6 µM | 1.6 µM | –
15 | J LRKLWKRLAKIIKRLYRYLRRPVR B (Ac-LRKLWKRLAKIIKRLYRYLRRPVR-NH2) [Peptide P154] | 51.2 µM | 1.6 µM | –
16 | J LRKLWKRVVKIWKRYLRQLRRPVR B (Ac-LRKLWKRVVKIWKRYLRQLRRPVR-NH2) [Peptide P153] | 25.6 µM | 1.6 µM | –
17 | J LRRLWKRLVKILKRWFRYLRRPVR B (Ac-LRRLWKRLVKILKRWFRYLRRPVR-NH2) [Peptide P142] | 51.2 µM | 0.8 µM | –
18 | J LRRLWKRLVKLWKRFFRYLKKPVR B [Peptide P156] | 51.2 µM | 1.6 µM | –
19 | J LRRLWKRLVRIIKRIYRQLKRPVR B (Ac-LRRLWKRLVRIIKRIYRQLKRPVR-NH2) [Peptide P140] | 25.6 µM | 1.6 µM | –
20 | J LRRLWKRVFKIIKRLFRQLKKPVR B (Ac-LRRLWKRVFKIIKRLFRQLKKPVR-NH2) [Peptide P163] | 25.6 µM | 0.8 µM | –
21 | J LRRLYKRVFRLLKRWWRYLKRPVR B (Ac-LRRLYKRVFRLLKRWWRYLKRPVR-NH2) [Peptide P141] | 25.6 µM | 0.8 µM | –
22 | J LRRLYKRVVKLWKRLFRQLRRPVR B (Ac-LRRLYKRVVKLWKRLFRQLRRPVR-NH2) [Peptide P143] | 51.2 µM | 1.6 µM | fold increase of activity in the presence of plasma as compared to OP-145 (S. aureus JAR060131; 50% plasma): 4 fold
23 | J LRRVWKRVARIIKRLYRYLKRPVR B (Ac-LRRVWKRVARIIKRLYRYLKRPVR-NH2) [Peptide P161] | 25.6 µM | 1.6 µM | –
24 | J LRRVYKRLARLIKRYLRQLKKPVR B (Ac-LRRVYKRLARLIKRYLRQLKKPVR-NH2) [Peptide P152] | 25.6 µM | 1.6 µM | –
25 | J LRRVYKRLFRLWKRIIRQLRRPVR B (Ac-LRRVYKRLFRLWKRIIRQLRRPVR-NH2) [Peptide P158] | 25.6 µM | 1.6 µM | –
